Measured values from patent US9775904B2 (priority 2014, dated 2017).
Read-outs that look alike come from different tables or passages of the source.

Columns and labels:
[1] = molecular target: T1, human glucagon receptor (hGlucagon R) (Homo sapiens, UniProt P47871); experiment: cAMP response of HEK-293 cells expressing human glucagon receptor (HTRF); assay type: cell-based
T1 construct: expressed in transfected cells
Protocol: (§1) cAMP content of cells was determined using a kit from Cisbio Corp. (cat. no. 62AM4PEC) based on HTRF (Homogenous Time Resolved Fluorescence). For preparation, cells were split into T175 culture flasks and grown overnight to near confluency in medium (DMEM/10% FBS). Medium was then removed and cells washed with PBS lacking calcium and magnesium, followed by proteinase treatment with accutase (Sigma-Aldrich cat. no. A6964). Detached cells were washed and resuspended in assay buffer (1×HBSS; 20 mM HEPES, 0.1% BSA, 2 mM IBMX) and cellular density determined. They were then diluted to 400000 cells/ml and 25 μl-aliquots dispensed into the wells of 96-well plates. For measurement, 25 μl of test compound in assay buffer was added to the wells, followed by incubation for 30 minutes at room temperature.

[2] = molecular target: T2, human GIP receptor (hGIP-R) (Homo sapiens, UniProt P48546); experiment: cAMP response of HEK-293 cells expressing human GIP receptor (HTRF); assay type: cell-based
T2 construct: expressed in transfected cells
T2 sequence (P48546 22-466): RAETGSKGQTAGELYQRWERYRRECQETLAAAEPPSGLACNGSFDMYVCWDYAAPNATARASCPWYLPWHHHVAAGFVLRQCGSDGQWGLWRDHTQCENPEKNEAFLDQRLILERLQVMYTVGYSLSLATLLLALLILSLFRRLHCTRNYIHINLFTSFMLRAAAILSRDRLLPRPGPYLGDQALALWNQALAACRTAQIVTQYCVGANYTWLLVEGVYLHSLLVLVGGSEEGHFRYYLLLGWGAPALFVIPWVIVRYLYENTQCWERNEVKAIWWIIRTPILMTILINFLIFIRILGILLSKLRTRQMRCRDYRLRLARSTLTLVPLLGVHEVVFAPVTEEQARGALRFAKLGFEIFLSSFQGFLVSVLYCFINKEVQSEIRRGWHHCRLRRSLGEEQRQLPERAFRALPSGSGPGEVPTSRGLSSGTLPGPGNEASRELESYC
Protocol: as §1

[3] = molecular target: T3, human GLP-1 receptor (hGLP-1 R) (Homo sapiens, UniProt P43220); experiment: cAMP response of HEK-293 cells expressing human GLP-1 receptor (HTRF); assay type: cell-based; settings: Table 6
T3 construct: expressed in transfected cells
Protocol: as §1

[4] = Solubility testing in buffer (HPLC-UV); assay type: physicochemical
Protocol: Prior to the testing of solubility and stability of a peptide batch, its purity (HPLC-UV) was determined.
. Therefore, solutions from solid samples were prepared in different buffer systems with a concentration of 10 mg/mL compound based on the previously determined % purity. HPLC-UV was performed after 2 h of gentle agitation from the supernatant, which was obtained by 20 min of centrifugation at 4500 rpm.
[…]. This analysis also served as starting point (t0) for the stability testing.

[5] = Chronic effect on body weight and body fat in female DIO C57BL/6 mice, 4 weeks; assay type: in vivo; settings: 50 μg/kg qd s.c.
Protocol: (§2) C57BL/6 Harlan mice are housed in groups in a specific pathogen-free barrier facility on a 12 h light/dark cycle with free access to water and standard or high-fat diet. After prefeeding on high-fat diet, mice are stratified to treatment groups (n=8), so that each group has similar mean body weight. An age-matched group with ad-libitum access to standard chow is included as standard control group. Before the experiment, mice are subcutaneously (s.c.) injected with vehicle solution and weighed for 3 days to acclimate them to the procedures.
2) Chronic effect on body weight in female DIO mice: mice are treated once (s.c. in evening hours) or twice daily (s.c. in the morning and in the evening), respectively, at the beginning and the end of the light phase with either vehicle or exendin-4 derivatives for 4 weeks. Body weight is recorded daily. Two days before start of treatment and on day 26, total fat mass is measured by nuclear magnetic resonance (NMR).
(§3) Statistical analyses are performed with Everstat 6.0 by repeated measures two-way ANOVA and Dunnetts post-hoc analyses (glucose profile) and 1-way-ANOVA, followed by Dunnetts post-hoc test (body weight, body fat). Differences versus vehicle-treated DIO control mice are considered statistically significant at the p<0.05 level.
Body weight was recorded daily, and body fat content was determined before the start and after 4 weeks of treatment. […] These changes resulted from a decrease in body fat, as shown by the absolute changes in body fat content (Table 10, FIG. 3).
Body weight was recorded daily, and body fat content was determined before the start and after 4 weeks of treatment.

[6] = Acute effect on blood glucose in fed female DIO C57BL/6 mice; assay type: in vivo; settings: 50 μg/kg s.c. once daily; t=1, 2, 3, 4, 6 and 24 h post dosing; p<0.001
Protocol: as §2
1) Acute effect on blood glucose in fed female DIO mice: initial blood samples are taken just before first administration (s.c.) of vehicle (phosphate buffer solution) or the exendin-4 derivatives (dissolved in phosphate buffer), respectively. The volume of administration is 5 mL/kg. The animals have access to water and their corresponding diet during the experiment. Blood glucose levels are measured at t=0 h, t=1 h, t=2 h, t=3 h, t=4 h, t=6 h and t=24 h (method: Accu-Check glucometer). Blood sampling is performed by tail incision without anaesthesia.
as §3
At predefined time points, more blood samples were taken to measure blood glucose and generate the blood glucose profile over 24 h.

[7] = pH 4.5, target concentration 10 mg/ml, read-out: solubility [mg/ml] pH 4.5
[8] = pH 7.4, target concentration 10 mg/ml, read-out: solubility [mg/ml] pH 7.4

T1 sequence (P47871 26-477): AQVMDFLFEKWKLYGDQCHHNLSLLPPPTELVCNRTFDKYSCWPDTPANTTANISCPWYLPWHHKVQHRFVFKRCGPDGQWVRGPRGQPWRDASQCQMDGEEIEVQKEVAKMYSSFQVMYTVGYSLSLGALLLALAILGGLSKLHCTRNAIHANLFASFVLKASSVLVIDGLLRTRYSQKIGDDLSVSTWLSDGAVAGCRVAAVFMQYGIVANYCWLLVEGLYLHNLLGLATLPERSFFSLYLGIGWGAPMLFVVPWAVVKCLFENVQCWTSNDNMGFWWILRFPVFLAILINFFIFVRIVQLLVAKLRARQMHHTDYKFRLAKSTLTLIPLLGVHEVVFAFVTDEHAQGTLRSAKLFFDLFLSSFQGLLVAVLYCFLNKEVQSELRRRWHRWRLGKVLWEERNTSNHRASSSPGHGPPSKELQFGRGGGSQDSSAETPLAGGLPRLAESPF
T3 sequence (P43220 24-463): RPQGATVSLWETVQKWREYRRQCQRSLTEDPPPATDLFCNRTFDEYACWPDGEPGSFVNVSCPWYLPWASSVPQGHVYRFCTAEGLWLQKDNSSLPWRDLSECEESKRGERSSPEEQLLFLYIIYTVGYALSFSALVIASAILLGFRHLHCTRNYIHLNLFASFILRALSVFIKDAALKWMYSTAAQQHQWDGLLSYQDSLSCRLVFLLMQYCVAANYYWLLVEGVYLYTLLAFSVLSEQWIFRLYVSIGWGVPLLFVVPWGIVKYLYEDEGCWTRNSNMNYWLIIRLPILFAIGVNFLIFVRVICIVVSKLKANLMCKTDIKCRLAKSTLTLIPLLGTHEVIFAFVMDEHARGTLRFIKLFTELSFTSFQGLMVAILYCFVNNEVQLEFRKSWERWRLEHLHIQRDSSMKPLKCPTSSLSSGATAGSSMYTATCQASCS

Row | SMILES | EC50 ([1]; Table 6) [pM] | EC50 ([2]; Table 6, read-out: EC50 hGIP-R) [pM] | EC50 [3] [pM] | solubility at 2 h [4, 7] [mg/mL] | solubility at 2 h [4, 8] [mg/mL] | EC50 ([1]; Table 7, comparison of residue in position 14) [pM] | EC50 ([2]; Table 7, comparison of residue in position 14, read-out: EC50 hGIP-1) [pM] | Day on which significant body weight decrease begins ([5]; 4 weeks, continuing through the end of the study) [days] | Daily body weight compared to vehicle DIO control mice ([5]; 4 weeks, p>0.001 by the end of the study (so in the source)) | Body fat change ([5]; DIO mice, 4-week treatment, NMR, mean ± SEM) [g] | Overall weight change ([5]; DIO mice, 4-week treatment, mean ± SEM) [g] | Blood glucose compared to DIO control mice [6]
1 | CCCCCCCCCCCCCCCCCC(=O)N[C@@H](CCC(=O)NCCCC[C@H](NC(=O)[C@H](CCC(N)=O)NC(=O)[C@H](CCCCN)NC(=O)[C@H](CO)NC(=O)[C@H](CC(C)C)NC(=O)[C@H](CC(=O)O)NC(=O)[C@H](CO)NC(=O)[C@@H](NC(=O)[C@H](Cc1ccccc1)NC(=O)[C@@H](NC(=O)CNC(=O)[C@H](CCC(N)=O)NC(=O)C(C)(C)NC(=O)[C@@H](N)Cc1c[nH]cn1)[C@@H](C)O)[C@@H](C)O)C(=O)N[C@@H](CC(=O)O)C(=O)N[C@@H](CCC(=O)O)C(=O)N[C@@H](CCC(N)=O)C(=O)N[C@@H](CCCNC(=N)N)C(=O)N[C@@H](C)C(=O)N[C@@H](CCCCN)C(=O)N[C@@H](CC(C)C)C(=O)N[C@@H](Cc1ccccc1)C(=O)N[C@H](C(=O)N[C@@H](CCC(=O)O)C(=O)N[C@@H](Cc1c[nH]c2ccccc12)C(=O)N[C@@H](CC(C)C)C(=O)NC(C)(C)C(=O)N[C@@H](C)C(=O)NCC(=O)NCC(=O)N1CCC[C@H]1C(=O)N[C@@H](CO)C(=O)N[C@@H](CO)C(=O)NCC(=O)N[C@@H](C)C(=O)N1CCC[C@H]1C(=O)N1CCC[C@H]1C(=O)N1CCC[C@H]1C(=O)N[C@@H](CO)C(N)=O)[C@@H](C)CC)C(=O)O [SEQ ID NO: 9, H-Aib-Q-G-T-F-T-S-D-L-S-K-Q-K(γE-x70)-D-E-Q-R-A-K-L-F-I-E-W-L-Aib-A-G-G-P-S-S-G-A-P-P-P-S-NH2] | 15.4 | 1160 | 6.4 |  |  |  |  |  |  |  |  | 
2 | CCCCCCCCCCCCCCCC(=O)N[C@@H](CCC(=O)NCCCC[C@H](NC(=O)[C@H](CCC(N)=O)NC(=O)[C@H](CCCCN)NC(=O)[C@H](CO)NC(=O)[C@H](CC(C)C)NC(=O)[C@H](CC(=O)O)NC(=O)[C@H](CO)NC(=O)[C@@H](NC(=O)[C@H](Cc1ccccc1)NC(=O)[C@@H](NC(=O)CNC(=O)[C@H](CCC(N)=O)NC(=O)C(C)(C)NC(=O)[C@@H](N)Cc1c[nH]cn1)[C@@H](C)O)[C@@H](C)O)C(=O)N[C@@H](CC(=O)O)C(=O)N[C@@H](CCC(=O)O)C(=O)N[C@@H](CCC(N)=O)C(=O)N[C@@H](CCCNC(=N)N)C(=O)N[C@@H](C)C(=O)N[C@@H](CCCCN)C(=O)N[C@@H](CC(C)C)C(=O)N[C@@H](Cc1ccccc1)C(=O)N[C@H](C(=O)N[C@@H](CCC(=O)O)C(=O)N[C@@H](Cc1c[nH]c2ccccc12)C(=O)N[C@@H](CC(C)C)C(=O)NC(C)(C)C(=O)N[C@@H](C)C(=O)NCC(=O)NCC(=O)N1CCC[C@H]1C(=O)N[C@@H](CO)C(=O)N[C@@H](CO)C(=O)NCC(=O)N[C@@H](C)C(=O)N1CCC[C@H]1C(=O)N1CCC[C@H]1C(=O)N1CCC[C@H]1C(=O)N[C@@H](CO)C(N)=O)[C@@H](C)CC)C(=O)O [SEQ ID NO: 10, H-Aib-Q-G-T-F-T-S-D-L-S-K-Q-K(γE-x53)-D-E-Q-R-A-K-L-F-I-E-W-L-Aib-A-G-G-P-S-S-G-A-P-P-P-S-NH2] | 52.4 | 890 | 3.5 |  |  |  |  |  |  |  |  | 
3 | CCCCCCCCCCCCCCCC(=O)N[C@@H](CCC(=O)N[C@@H](CCC(=O)NCCCC[C@H](NC(=O)[C@H](CCC(N)=O)NC(=O)[C@H](CCCCN)NC(=O)[C@H](CO)NC(=O)[C@H](CC(C)C)NC(=O)[C@H](CC(=O)O)NC(=O)[C@H](CO)NC(=O)[C@@H](NC(=O)[C@H](Cc1ccccc1)NC(=O)[C@@H](NC(=O)CNC(=O)[C@H](CCC(N)=O)NC(=O)C(C)(C)NC(=O)[C@@H](N)Cc1c[nH]cn1)[C@@H](C)O)[C@@H](C)O)C(=O)N[C@@H](CC(=O)O)C(=O)N[C@@H](CCC(=O)O)C(=O)N[C@@H](CCC(N)=O)C(=O)N[C@@H](CCCNC(=N)N)C(=O)N[C@@H](C)C(=O)N[C@@H](CCCCN)C(=O)N[C@@H](CC(C)C)C(=O)N[C@@H](Cc1ccccc1)C(=O)N[C@H](C(=O)N[C@@H](CCC(=O)O)C(=O)N[C@@H](Cc1c[nH]c2ccccc12)C(=O)N[C@@H](CC(C)C)C(=O)NC(C)(C)C(=O)N[C@@H](CCCCN)C(=O)N[C@H](C)C(=O)NCC(=O)N1CCC[C@H]1C(=O)N[C@@H](CO)C(=O)N[C@@H](CO)C(=O)NCC(=O)N[C@@H](C)C(=O)N1CCC[C@H]1C(=O)N1CCC[C@H]1C(=O)N1CCC[C@H]1C(=O)N[C@@H](CO)C(N)=O)[C@@H](C)CC)C(=O)O)C(=O)O [SEQ ID NO: 14, H-Aib-Q-G-T-F-T-S-D-L-S-K-Q-K(γE-γE-x53)-D-E-Q-R-A-K-L-F-I-E-W-L-Aib-K-dAla-G-P-S-S-G-A-P-P-P-S-NH2] |  |  |  | > 8 | > 8 |  |  |  |  |  |  | 
4 | CCCCCCCCCCCCCCCC(=O)N[C@@H](CCC(=O)N[C@@H](CCC(=O)NCCCC[C@H](NC(=O)[C@H](CCC(N)=O)NC(=O)[C@H](CCCCN)NC(=O)[C@H](CO)NC(=O)[C@H](CC(C)C)NC(=O)[C@H](CC(=O)O)NC(=O)[C@H](CO)NC(=O)[C@@H](NC(=O)[C@H](Cc1ccccc1)NC(=O)[C@@H](NC(=O)CNC(=O)[C@H](CCC(N)=O)NC(=O)C(C)(C)NC(=O)[C@@H](N)Cc1c[nH]cn1)[C@@H](C)O)[C@@H](C)O)C(=O)N[C@@H](CC(=O)O)C(=O)N[C@@H](CCC(=O)O)C(=O)N[C@@H](CCC(N)=O)C(=O)N[C@@H](CCCNC(=N)N)C(=O)N[C@@H](C)C(=O)N[C@@H](CCCCN)C(=O)N[C@@H](CC(C)C)C(=O)N[C@@H](Cc1ccccc1)C(=O)N[C@H](C(=O)N[C@@H](CCC(=O)O)C(=O)N[C@@H](Cc1c[nH]c2ccccc12)C(=O)N[C@@H](CC(C)C)C(=O)NC(C)(C)C(=O)N[C@@H](CCCCN)C(=O)NCC(=O)NCC(=O)N1CCC[C@H]1C(=O)N[C@@H](CO)C(=O)N[C@@H](CO)C(=O)NCC(=O)N[C@@H](C)C(=O)N1CCC[C@H]1C(=O)N1CCC[C@H]1C(=O)N1CCC[C@H]1C(=O)N[C@@H](CO)C(N)=O)[C@@H](C)CC)C(=O)O)C(=O)O [SEQ ID NO: 15, H-Aib-Q-G-T-F-T-S-D-L-S-K-Q-K(γE-γE-x53)-D-E-Q-R-A-K-L-F-I-E-W-L-Aib-K-G-G-P-S-S-G-A-P-P-P-S-NH2] |  |  |  | > 8 | > 8 | 394 | 11900 | 4 | statistically significant decrease | -4.01 ± 0.68 | -4.59 ± 1.1 | significant decrease in blood glucose
